Measurements from patent publication US20110015123A1, “Modulation of GLUT4 Gene Promoter activity BY AHNAK” (Technion Research and Developmet Foundation Ltd., priority 2008, published 2011).
Entries after “also recorded” stand apart in the source; their conditions may differ.

How the values were obtained:
GLUT4 promoter [1] = assay: GLUT4-P-Luc promoter reporter (luciferase) assay in H9C2 myotubes; type: cell-based, rat; details: 0-100 μM arachidonic acid, 24 h
GLUT4 promoter [2] = assay: GLUT4-P-Luc promoter reporter (luciferase) assay in primary rat adipocytes (PRA); type: cell-based
From the text: (§1) Expression vectors and luciferase promoter reporters. Expression vectors, pC-DY, pM-DY, and pN-DY, baring the C-terminus, middle domain, and N-terminus of human AHNAK in c-myc-tagged pCDNA3 (Hashimoto, Amagai et al. 1993; Nie, Ning et al. 2000), were a generous gift of Dr. Hashimoto (Department of Dermatology, Kurume University School of Medicine, Kurume, Fukuoka, Japan). The rat GLUT4 promoter (GLUT4-P) reporter and a derived series of progressively 5′-deleted promoter reporters, have been described by us previously (Armoni, Harel et al. 2005). A control synthetic reporter 3×IRS-LUC, containing three repeats of an insulin response element consensus motif in pGL2 was provided by Dr. Eric Tang (Tang, Nunez et al. 1999).
Cell cultures and transient expression assays. […]
(§2) PRA were transfected by electroporation with 2 μg of GLUT4 promoter reporter DNA, 0-5 μg of expression vectors and 0.5 μg of pCMV-β-galactosidase. […] Within each experiment, values were expressed as a percentage of the basal GLUT4 promoter activity, i.e. the activity obtained in cells transfected with promoter reporter alone. Cell viability was assessed by trypan blue exclusion. Each experiment was repeated three to four times, with each sample analyzed in quadruplicates.

GLUT4 protein = GLUT4 protein level in PRA by Western immunoblotting; type: cell-based, rat; details: NT-transfected PRA, arachidonic acid 100 μM, 24 hrs
Experimental: AHNAK siRNA. Double-stranded RNAs (dsRNAs) targeting the rat AHNAK were purchased from Dharmacon (Dharmacon, Inc, California, USA). The siRNA (On TARGETplus SMARTpool L-101672-01-0010, Rat Ahnak, XM—574618) used in the experiments is a mixture consisting of the siRNAs of the sequences set forth in SEQ ID NO:1 to SEQ ID NO:8.
PRA were transfected by electroporation with the dsRNA (40 ng in PBS, pH=7.4) as described above. After 24 hrs, cells were harvested and total RNA and protein were obtained. Scrambled non targeting duplex RNA (NT-siRNA) was transfected as control. AHNAK silencing was assessed by QRT-PCR, and normalized to 18S rRNA. GLUT4 expression at protein level was assessed by Western immunoblotting as detailed by us before (Armoni et al., 2002; Armoni et al., 2005).

AHNAK = assay: Immunofluorescence of AHNAK cellular distribution in HEK cells; type: cell-based, human; details: serum free medium, 24 hrs, insulin 100 nM alone or with LY 20 μM
Experimental: Immunofluorescence Studies—Human embryonic kidney (HEK) cells were plated in 60 mm plates at a density of 500,000 cells/plate. Cells were incubated for 24 h at 37° C. The next day, cells were washed with magnesium-containing phosphate-buffered saline and transferred to serum-deprived medium supplemented with 2% BSA either with or without Insulin (100 nM). After 24 h, the cells were fixed in 4% paraformaldehyde and stained for indirect immunofluorescence using an anti-AHNAK primary antibody (SC 81048), followed by a FITC-conjugated goat anti-mouse secondary antibody. The nuclei were stained by DAPI.

[3] = tested on: insulin response element (3×IRS-LUC); assay: 3×IRS-LUC synthetic promoter reporter assay in PRA; type: cell-based, rat; details: PRA transfected with AHNAK fragments, 24 hrs
From the text: as §1, §2

Row | Molecule | effect on transcription from GLUT4-P (GLUT4 promoter [1]) | effect on transcription from GLUT4-P (GLUT4 promoter [2]; PRA, ambient arachidonic acid levels, 24 h) | decrease in GLUT4 protein levels (GLUT4 protein) | AHNAK subcellular distribution (AHNAK) | effect on AHNAK fragment repression of GLUT4-P (GLUT4 promoter [2]; PRA transfected with AHNAK fragments, 24 hrs) | effect on AHNAK repression of 3×IRS-LUC reporter [3]
1 | CCCCC/C=C\C/C=C\C/C=C\C/C=C\CCCC(=O)O [arachidonic acid] | dose-dependently repressed transcription from GLUT4-P | dose-dependently repressed transcription from GLUT4-P | ~40%±3 |  |  | 
2 | O=c1cc(N2CCOCC2)oc2c(-c3ccccc3)cccc12 [LY] |  |  |  | AHNAK nuclear re-distribution |  | 
3 | insulin: Insulin purchased from SIGMA, Israel |  |  |  | most of it translocates to the cytosel | partially rescued the activity | partially rescued the activity; also recorded: curtailed this repression
